Assay: xn = mol fraction of the nth substance listed

CCCCCCCC[n+]1ccn(C)c1.O=C([O-])[C@@H]1CCCN1 + O
298.15 K, 100 kPa, frequency 0.001 MHz
Conditions	electrical conductivity [S/m]
x1 = 0.001745	0.149
x1 = 0.002409	0.209
x1 = 0.002947	0.264
x1 = 0.003555	0.308
x1 = 0.004199	0.369
x1 = 0.004895	0.425
x1 = 0.005502	0.483
x1 = 0.006143	0.531
x1 = 0.006819	0.572
x1 = 0.0076	0.608
x1 = 0.008416	0.648
x1 = 0.009336	0.688
x1 = 0.01018	0.725
x1 = 0.01137	0.783
x1 = 0.01233	0.819
x1 = 0.01355	0.879

CCCC[n+]1ccn(C)c1.[Cl-] + CCO
101 kPa
Conditions	electrical conductivity [S/m]	viscosity [mPa·s]
293.15 K, x2 = 0.9501	–	1.78
298.15 K, x2 = 0.7003	1.07	10.1
298.15 K, x2 = 0.8002	1.45	4.59
303.15 K, x2 = 0.4991	–	49.8
303.15 K, x2 = 0.6011	–	20.7
303.15 K, x2 = 0.9501	–	1.47

O=C1CCCO1 + CCCC[n+]1ccn(C)c1.O=S(=O)([N-]S(=O)(=O)C(F)(F)F)C(F)(F)F
100 kPa
Conditions	electrical conductivity [S/m]	viscosity [mPa·s]
293.15 K, x1 = 0.2992	0.457	29.86
293.15 K, x1 = 0.8496	1.39	–
293.15 K, x2 = 0.0151	0.411	–
298.15 K, x1 = 0.5021	0.744	14.84
303.15 K, x1 = 0.2992	0.642	20.99
308.15 K, x1 = 0.5979	1.27	8.18
308.15 K, x1 = 0.7999	1.81	4.12
308.15 K, x1 = 0.8496	1.85	–
308.15 K, x1 = 1	0.001	1.52
313.15 K, x1 = 0.1984	0.753	18.48
313.15 K, x1 = 0.5979	1.45	7.26
313.15 K, x1 = 0.95	1.42	–
313.15 K, x1 = 1	0.001	1.42
313.15 K, x2 = 0.0151	0.542	–
318.15 K, x1 = 0.7999	2.15	3.44
318.15 K, x1 = 0.8496	2.17	–
318.15 K, x1 = 0.8995	2.02	2.35
318.15 K, x1 = 1	0.001	1.35
323.15 K, x1 = 0.7999	2.37	3.11
323.15 K, x1 = 1	0.002	1.3

CCCCCCCCCCCCCCCC[n+]1ccccc1.O=C([O-])c1ccccc1O + C[C@H](N)C(=O)O + O
electrical conductivity [S/m], 101 kPa
Conditions	293.15 K	298.15 K	303.15 K	308.15 K	313.15 K
x2 = 0.0009002, x1 = 5.4e-07	0.00045	0.00051	0.000575	0.000646	0.000726
x2 = 0.0009002, x1 = 1.09e-06	0.000683	0.000777	0.000872	0.000975	0.00108
x2 = 0.0009002, x1 = 1.63e-06	0.000904	0.00102	0.00114	0.00127	0.00141
x2 = 0.0009002, x1 = 2.17e-06	0.00109	0.00123	0.00139	0.00155	0.00172
x2 = 0.0009002, x1 = 2.53e-06	–	–	–	0.00181	0.002
x2 = 0.0009002, x1 = 2.71e-06	0.00125	0.00144	0.00162	–	–
x2 = 0.0009002, x1 = 3.07e-06	0.00137	0.00158	0.0018	0.00202	0.00228
x2 = 0.0009002, x1 = 3.62e-06	0.00148	0.0017	0.00195	0.00222	0.00249
x2 = 0.0009002, x1 = 3.98e-06	0.00159	0.00182	0.00208	0.00237	0.00267
x2 = 0.0009002, x1 = 4.52e-06	0.0017	0.00194	0.00222	0.00253	0.00286
x2 = 0.0009002, x1 = 4.88e-06	0.00181	0.00206	0.00235	0.00268	0.00303
x2 = 0.0009002, x1 = 5.43e-06	0.00191	0.00218	0.00248	0.00282	0.00319
x2 = 0.0009002, x1 = 5.79e-06	0.002	0.00228	0.0026	0.00295	0.00334
x2 = 0.0009002, x1 = 6.15e-06	0.0021	0.00239	0.00271	0.00308	0.00347
x2 = 0.0009002, x1 = 6.51e-06	0.00217	0.00247	0.0028	0.00318	0.0036
x2 = 0.0009002, x1 = 6.69e-06	0.00224	0.00255	0.00289	0.00327	0.00369
x2 = 0.001799, x1 = 3.6e-07	0.00047	0.000542	0.000625	0.000719	0.000829
x2 = 0.001799, x1 = 5.4e-07	0.000604	0.000697	0.000797	0.000911	0.00103
x2 = 0.001799, x1 = 9.1e-07	0.00073	0.000837	0.000953	0.00108	0.00123
x2 = 0.001799, x1 = 1.27e-06	0.000889	0.00102	0.00115	0.0013	0.00146
x2 = 0.001799, x1 = 1.63e-06	0.00104	0.00119	0.00134	0.00151	0.0017
x2 = 0.001799, x1 = 1.81e-06	0.00112	0.00128	0.00145	0.00163	0.00183
x2 = 0.001799, x1 = 2e-06	0.00121	0.00138	0.00156	0.00175	0.00196
x2 = 0.001799, x1 = 2.18e-06	0.00127	0.00145	0.00165	0.00186	0.00208
x2 = 0.001799, x1 = 2.36e-06	–	–	0.00177	0.00198	0.00222
x2 = 0.001799, x1 = 2.54e-06	0.00134	0.00155	–	–	–
x2 = 0.001799, x1 = 2.72e-06	0.00142	0.00164	0.00188	0.00212	0.0024
x2 = 0.001799, x1 = 3.09e-06	0.00151	0.00174	0.002	0.00229	0.0026
x2 = 0.001799, x1 = 3.63e-06	0.00161	0.00186	0.00213	0.00244	0.00276
x2 = 0.001799, x1 = 3.99e-06	0.00173	0.00198	0.00227	0.0026	0.00296
x2 = 0.001799, x1 = 4.54e-06	0.00183	0.0021	0.0024	0.00275	0.00312
x2 = 0.001799, x1 = 4.9e-06	0.00192	0.0022	0.00251	0.00287	0.00326

ClC(Cl)Cl + CCCC[n+]1ccn(C)c1.F[B-](F)(F)F
298.15 K, 101 kPa
Conditions	electrical conductivity [S/m]	viscosity [mPa·s]
x1 = 0.1079	0.245	92
x1 = 0.2033	0.29	73
x1 = 0.3071	0.347	55.5
x1 = 0.4018	0.411	40.8
x1 = 0.5052	0.498	27.1
x1 = 0.6091	0.586	16.3
x1 = 0.7028	0.676	9.2
x1 = 0.7825	0.668	5.01
x1 = 0.8491	0.54	2.99

O=C1CCCO1 + C[NH+](C)C.O=S(=O)([N-]S(=O)(=O)C(F)(F)F)C(F)(F)F
Conditions	viscosity [mPa·s]
333.15 K, 101 kPa, x1 = 1	1.08

CCCCCCCCn1cc[n+](C)c1.O=[N+]([O-])[O-] + CCO
101 kPa
Conditions	viscosity [mPa·s]
283.15 K, x2 = 0.554	48.2
288.15 K, x2 = 0.357	162
288.15 K, x2 = 0.868	4.46
293.15 K, x2 = 0.455	59.7
293.15 K, x2 = 0.767	8.59
298.15 K, x2 = 0.767	7.54
303.15 K, x2 = 0.554	21.79
303.15 K, x2 = 0.767	6.47
313.15 K, x2 = 0.767	4.99
318.15 K, x2 = 0.128	112
318.15 K, x2 = 0.357	39.8
318.15 K, x2 = 0.455	21.77
328.15 K, x2 = 0.128	53.6
328.15 K, x2 = 0.357	23.9
328.15 K, x2 = 0.554	9.29

CCCC[n+]1ccn(C)c1.O=S(=O)([O-])C(F)(F)F + CS(C)=O
viscosity [mPa·s], 100 kPa
Conditions	x1 = 0.1006	x1 = 0.2001	x1 = 0.3054	x1 = 0.4035	x1 = 0.502	x1 = 0.6085	x1 = 0.7001	x1 = 0.8088	x1 = 0.9004	x1 = 1
298.15 K	4	6.59	10.1	14.3	21.8	33	44	59.8	72.8	82.4
303.15 K	3.57	5.71	8.68	12.4	18.4	27.2	36	48.1	58.3	66.7
308.15 K	3.18	–	7.55	10.5	15.5	22.7	29.7	39.6	47.4	52.9
313.15 K	2.88	4.46	6.61	9.22	13.3	19.2	25	32.8	39	43.7
318.15 K	2.61	3.98	5.83	8.08	11.5	16.4	21.2	27.5	32.6	36.3
323.15 K	2.38	3.59	5.2	7.15	10.1	14.2	18.1	23.4	27.5	30.6

CC[N+](CC)(CC)CC.O=[N+]([O-])[O-] + CC[NH3+].O=[N+]([O-])[O-]
101 kPa, frequency 0.00293 MHz
Conditions	electrical conductivity [S/m]
293.15 K, x1 = 0.15	1.01
303.15 K, x1 = 0.0501	2.13
303.15 K, x1 = 0.15	1.42
303.15 K, x1 = 0.35	0.565
308.15 K, x1 = 0.2001	1.34
313.15 K, x1 = 0.1	2.33
318.15 K, x1 = 0.2995	1.04
323.15 K, x1 = 0.15	2.46

101 kPa
Conditions	viscosity [mPa·s]
293.15 K, x1 = 0.15	74.1
303.15 K, x1 = 0.0501	35.5
303.15 K, x1 = 0.15	50
303.15 K, x1 = 0.35	131
308.15 K, x1 = 0.2001	50.4
313.15 K, x1 = 0.1	30.3
318.15 K, x1 = 0.2995	50.9
323.15 K, x1 = 0.15	26.2
328.15 K, x1 = 0.2001	26.6
328.15 K, x1 = 0.2567	32.4
328.15 K, x1 = 0.35	48.3
333.15 K, x1 = 0.15	20.1
343.15 K, x1 = 0.15	15.7
348.15 K, x1 = 0.2001	16
348.15 K, x1 = 0.35	26.3
353.15 K, x1 = 0.1	11
353.15 K, x1 = 0.35	23.4

CCCC[n+]1ccn(C)c1.O=S(=O)([O-])C(F)(F)F + CCCC[n+]1ccn(C)c1.F[P-](F)(F)(F)(F)F
100 kPa
Conditions	viscosity [mPa·s]
293.15 K, x2 = 0.006063	91.5
293.15 K, x2 = 0.15	109.5
293.15 K, x2 = 0.1999	116.6
293.15 K, x2 = 0.7	218
298.15 K, x2 = 0.08059	83.4
303.15 K, x2 = 0.08059	69.3
303.15 K, x2 = 0.1	70.8
308.15 K, x2 = 0.15	60
308.15 K, x2 = 0.1999	63.1
313.15 K, x2 = 0.1999	50.6
313.15 K, x2 = 0.5002	66.8
313.15 K, x2 = 0.7995	88.2
318.15 K, x2 = 0.15	40
318.15 K, x2 = 0.1999	41.75
318.15 K, x2 = 0.3	45.51
318.15 K, x2 = 0.8997	76.3
323.15 K, x2 = 0.3	38.24
323.15 K, x2 = 0.8997	62.3
328.15 K, x2 = 0.15	29.81
328.15 K, x2 = 0.1999	30.97
